Assay results taken from the supplement of paper PMC9663587.

Legend:
Torin2 = compound: C1=CC(=CC(=C1)N2C(=O)C=CC3=CN=C4C=CC(=CC4=C32)C5=CN=C(C=C5)N)C(F)(F)F [Torin2]
R0-3306 = compound: C1=CC2=C(C=CC(=C2)C=C3C(=O)NC(=NCC4=CC=CS4)S3)N=C1 [R0-3306]
AZD1775 = compound: C=CCn1c(=O)c2cnc(Nc3ccc(N4CCN(C)CC4)cc3)nc2n1-c1cccc(C(C)(C)O)n1 [AZD1775]
BSJ-03-123 = compound: CC(=O)c1c(C)c2cnc(Nc3ccc(N4CCN(CCOCCOCCOCCNC(=O)COc5cccc6c5C(=O)N(C5CCC(=O)NC5=O)C6=O)CC4)cn3)nc2n(C2CCCC2)c1=O [BSJ-03-123]
[1] = compound: CC(=O)c1c(C)c2cnc(Nc3ccc(N4CCNCC4)cn3)nc2n(C2CCCC2)c1=O
BVD523 = compound: CC(C)Nc1cc(-c2c[nH]c(C(=O)N[C@H](CO)c3cccc(Cl)c3)c2)c(Cl)cn1 [BVD523]
INK128/MLN0128 = compound: CC(C)n1nc(-c2ccc3oc(N)nc3c2)c2c(N)ncnc21 [INK128/MLN0128]
SHP099 = compound: CC1(CCN(CC1)C2=CN=C(C(=N2)N)C3=C(C(=CC=C3)Cl)Cl)N [SHP099]
[2] = compound: CCC1=CN=CN=C1N2CCN(CC2)CC3=NC4=C(N3)C=C(C=C4)C(F)(F)F
[3] = compound: CCCCOc1c(C(=O)c2c(F)cc(C)cc2F)c[nH]c2nncc1-2
Neratinib/HKI272 = compound: CCOc1cc2ncc(C#N)c(Nc3ccc(OCc4ccccn4)c(Cl)c3)c2cc1NC(=O)/C=C/CN(C)C [Neratinib/HKI272]
Volasertib/BI6727 = compound: CC[C@@H]1C(=O)N(C)c2cnc(Nc3ccc(C(=O)N[C@H]4CC[C@H](N5CCN(CC6CC6)CC5)CC4)cc3OC)nc2N1C(C)C [Volasertib/BI6727]
[4] = compound: CCc1cnn2c(NCc3ccc[n+]([O-])c3)cc(N3CCCC[C@H]3CCO)nc12
LEE011/Ribociclib = compound: CN(C)C(=O)c1cc2cnc(Nc3ccc(N4CCNCC4)cn3)nc2n1C1CCCC1 [LEE011/Ribociclib]
THZ-P1-2 = compound: CN(C)C/C=C/C(=O)NC1=CC=C(C=C1)C(=O)NC2=CC=CC(=C2)NC3=NC=NC(=C3)C4=CNC5=CC=CC=C54 [THZ-P1-2]
THZ1 = compound: CN(C)C/C=C/C(=O)Nc1ccc(C(=O)Nc2cccc(Nc3ncc(Cl)c(-c4c[nH]c5ccccc45)n3)c2)cc1 [THZ1]
senexin b = compound: CN1CCN(C(=O)c2ccc3cc(CCNc4ncnc5ccc(C#N)cc45)ccc3c2)CC1 [senexin b]
Saracatinib/AZD0530 = compound: CN1CCN(CCOc2cc(OC3CCOCC3)c3c(Nc4c(Cl)ccc5c4OCO5)ncnc3c2)CC1 [Saracatinib/AZD0530]
AZD2014 = compound: CNC(=O)c1cccc(-c2ccc3c(N4CCOC[C@@H]4C)nc(N4CCOC[C@@H]4C)nc3n2)c1 [AZD2014]
Rucaparib = compound: CNCc1ccc(-c2[nH]c3cc(F)cc4c3c2CCNC4=O)cc1 [Rucaparib]
[5] = compound: CNc1nc(-c2ccc3c(N)n[nH]c3c2)cc(N2C[C@@H](C(=O)NC3CCCCC3)CC[C@H]2C)n1
[6] = compound: CO[C@@H](C)Cn1c(=O)n(C)c2cnc3ccc(-c4cncc(C(C)(C)O)c4)cc3c21
Cediranib/AZD2171 = compound: COc1cc2c(Oc3ccc4[nH]c(C)cc4c3F)ncnc2cc1OCCCN1CCCC1 [Cediranib/AZD2171]
Cabozantinib = compound: COc1cc2nccc(Oc3ccc(NC(=O)C4(C(=O)Nc5ccc(F)cc5)CC4)cc3)c2cc1OC [Cabozantinib]
[7] = compound: COc1ccc2c(c1)[C@]1(C[C@H]1c1ccc3c(/C=C/c4ccc(CN5C[C@@H](C)O[C@@H](C)C5)cc4)n[nH]c3c1)C(=O)N2
Pictilisib/GDC0941 = compound: CS(=O)(=O)N1CCN(Cc2cc3nc(-c4cccc5[nH]ncc45)nc(N4CCOCC4)c3s2)CC1 [Pictilisib/GDC0941]
Ceritinib/LDK378 = compound: Cc1cc(Nc2ncc(Cl)c(Nc3ccccc3S(=O)(=O)C(C)C)n2)c(OC(C)C)cc1C1CCNCC1 [Ceritinib/LDK378]
Alpelisib/BYL719 = compound: Cc1nc(NC(=O)N2CCC[C@H]2C(N)=O)sc1-c1ccnc(C(C)(C)C(F)(F)F)c1 [Alpelisib/BYL719]
Dasatinib = compound: Cc1nc(Nc2ncc(C(=O)Nc3c(C)cccc3Cl)s2)cc(N2CCN(CCO)CC2)n1 [Dasatinib]
[8] = compound: Cc1nn(C)c(COc2ccc(N3CCN(S(=O)(=O)N(C)C)CC3)cc2)c1-c1cccc2c(CCCOc3cccc4ccccc34)c(C(=O)O)n(CCN3CCOCC3)c12
AZD7762 = compound: NC(=O)Nc1cc(-c2cccc(F)c2)sc1C(=O)N[C@H]1CCCNC1 [AZD7762]
AZD5363 = compound: NC1(C(=O)N[C@@H](CCO)c2ccc(Cl)cc2)CCN(c2nc[nH]c3nccc2-3)CC1 [AZD5363]
Buparlisib/NVP-BKM120 = compound: Nc1cc(C(F)(F)F)c(-c2cc(N3CCOCC3)nc(N3CCOCC3)n2)cn1 [Buparlisib/NVP-BKM120]
Vorinostat = compound: O=C(CCCCCCC(=O)Nc1ccccc1)NO [Vorinostat]
Tivantinib/ARQ197 = compound: O=C1NC(=O)[C@@H](c2cn3c4c(cccc24)CCC3)[C@@H]1c1c[nH]c2ccccc12 [Tivantinib/ARQ197]
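Note: breast cancer and non-malignant breast epithelial cell lines, Deep Dye Drop or Dye Drop imaging, nine half-log doses, GR normalized to time-zero plates and DMSO-only controls.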

Cell Line | GR50, 72 h (Torin2) | GR50, 72 h (R0-3306) | GR50, 72 h (AZD1775) | GR50, 72 h (BSJ-03-123) | GR50, 72 h [1] | GR50, 72 h (BVD523) | GR50, 72 h (INK128/MLN0128) | GR50, 72 h (SHP099) | GR50, 72 h [2] | GR50, 72 h [3] | GR50, 72 h (Neratinib/HKI272) | GR50, 72 h (Volasertib/BI6727) | GR50, 72 h [4] | GR50, 72 h (LEE011/Ribociclib) | GR50, 72 h (THZ-P1-2) | GR50, 72 h (THZ1) | GR50, 72 h (senexin b) | GR50, 72 h (Saracatinib/AZD0530) | GR50, 72 h (AZD2014) | GR50, 72 h (Rucaparib) | GR50, 72 h [5] | GR50, 72 h [6] | GR50, 72 h (Cediranib/AZD2171) | GR50, 72 h (Cabozantinib) | GR50, 72 h [7] | GR50, 72 h (Pictilisib/GDC0941) | GR50, 72 h (Ceritinib/LDK378) | GR50, 72 h (Alpelisib/BYL719) | GR50, 72 h (Dasatinib) | GR50, 72 h [8] | GR50, 72 h (AZD7762) | GR50, 72 h (AZD5363) | GR50, 72 h (Buparlisib/NVP-BKM120) | GR50, 72 h (Vorinostat) | GR50, 72 h (Tivantinib/ARQ197)
MDAMB415 | 0.00771 µM | > 10 µM | 1.56 µM | 1.36 µM | 0.0304 µM | > 10 µM | 0.0102 µM | > 10 µM | 8.3 µM | 1.87 µM | 1.65 µM | 0.0112 µM | 0.0203 µM | 0.00974 µM | 0.0764 µM | 0.0347 µM | > 10 µM | 4.22 µM | 0.006 µM | > 10 µM | 1.34 µM | < 0.001 µM | 1.46 µM | 6.41 µM | 0.0239 µM | 0.597 µM | 3.76 µM | > 10 µM | 0.236 µM | > 10 µM | 0.475 µM | 0.0101 µM | 1.02 µM | 2.92 µM | 1.5 µM
HS578T | 0.0071 µM | 4.28 µM | 0.0155 µM | 1.45 µM | 0.156 µM | 1.14 µM | 0.00906 µM | > 10 µM | > 10 µM | 0.0165 µM | 0.644 µM | 0.00257 µM | 0.00894 µM | 2.33 µM | > 10 µM | 0.0183 µM | > 10 µM | 4.04 µM | 0.0683 µM | > 10 µM | > 10 µM | < 0.001 µM | 0.551 µM | 6.38 µM | 0.00238 µM | 1.16 µM | 0.965 µM | > 10 µM | 0.0386 µM | > 10 µM | 0.0151 µM | 4.82 µM | 0.687 µM | 0.904 µM | 0.337 µM
